In this test the target is T1, human Werner helicase (WRN-BV08, Uniprot Q14191, amino acids 517-1235 with L1074F point mutation) (Homo sapiens, UniProt Q14191, L1074F).
T1 construct: Uniprot Q14191, amino acids 517-1235 with L1074F point mutation; TEV-cleavable 8×His (C, cleaved yes); made in house; host or cells: Sf9 insect cells (baculovirus)
T1 sequence (Q14191 with tags, fused parts or gaps L1074F limits assumed): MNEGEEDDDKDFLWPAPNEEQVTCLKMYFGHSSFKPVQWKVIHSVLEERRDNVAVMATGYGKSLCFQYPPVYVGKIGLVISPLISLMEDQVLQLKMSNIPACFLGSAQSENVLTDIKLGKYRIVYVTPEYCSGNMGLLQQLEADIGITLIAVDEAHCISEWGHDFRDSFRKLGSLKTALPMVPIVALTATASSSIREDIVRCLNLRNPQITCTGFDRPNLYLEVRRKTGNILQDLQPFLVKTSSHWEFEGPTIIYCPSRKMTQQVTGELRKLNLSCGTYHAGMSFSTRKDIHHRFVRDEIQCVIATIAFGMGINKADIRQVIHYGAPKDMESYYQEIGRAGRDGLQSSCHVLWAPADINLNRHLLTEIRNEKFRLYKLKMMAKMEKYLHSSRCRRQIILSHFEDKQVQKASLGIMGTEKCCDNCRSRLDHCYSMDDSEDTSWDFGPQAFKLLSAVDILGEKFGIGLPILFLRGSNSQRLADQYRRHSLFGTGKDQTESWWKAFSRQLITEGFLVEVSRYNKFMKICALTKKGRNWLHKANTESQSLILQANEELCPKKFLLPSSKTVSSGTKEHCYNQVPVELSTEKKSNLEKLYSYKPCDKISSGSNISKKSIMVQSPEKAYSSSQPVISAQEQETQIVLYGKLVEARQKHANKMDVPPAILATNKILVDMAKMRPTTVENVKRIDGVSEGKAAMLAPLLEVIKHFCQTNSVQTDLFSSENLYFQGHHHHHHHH
Put plainly: WRN (BV08) ADP-Glo Assay. Conditions: 0.15 nM WRN, 5 μM ATP, 0.1 nM DNA duplex, 15 min preincubation, 60 min at 25° C., pH 7.5, 1% DMSO; read-out: ADP-Glo_hWRN_IC50. The format is biochemical. Put shortly: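 Helicase ATPase activity is measured at 25 °C over 60 min using 0.15 nM enzyme, 5 μM ATP and 0.1 nM DNA duplex, final DMSO 1%. ADP production is detected by luminescence, with IC50 derived by curve fitting.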
A general note: ADP-Glo turns the ADP formed in a reaction into a luminescent signal.
Turning to `COC(C(=O)N(Cc1ccnc(C(C)(C)O)c1)C1C=CS(=O)(=O)C1)c1ccc(S(F)(F)(F)(F)F)cc1` (stereo not shown) [I-81, N-(1,1-dioxido-2,3-dihydrothiophen-3-yl)-N-((2-(2-hydroxypropan-2-yl)pyridin-4-yl)methyl)-2-methoxy-2-(4-(pentafluoro-λ^6-sulfaneyl)phenyl)acetamide], the IC50 is less than 0.5 µM.

In the case of `O=C(Cc1ccc2ncccc2c1)N(Cc1ccncc1)C1C=CS(=O)(=O)C1` (stereo not shown) [I-514, N-(1,1-dioxo-2,3-dihydro-1lambda6-thiophen-3-yl)-N-[(pyridin-4-yl)methyl]-2-(quinolin-6-yl)acetamide], the IC50 was greater than 50 µM.

Turning to `O=C(O)c1ccc(CN(C(=O)Cc2ccc(-n3cccc3)cc2)C2C=CS(=O)(=O)C2)cc1` (stereo not shown) [I-275, 4-{[N-(1,1-dioxo-2,3-dihydro-1lambda6-thiophen-3-yl)-2-[4-(1H-pyrrol-1-yl)phenyl]acetamido]methyl}benzoic acid], the IC50 was 10 to 50 µM.

`O=C(Cc1ccc(-n2cccc2)cc1)N(Cc1ccccc1CO)C1C=CS(=O)(=O)C1` (stereo not shown) [I-360, N-(1,1-dioxo-2,3-dihydro-1lambda6-thiophen-3-yl)-N-{[2-(hydroxymethyl)phenyl]methyl}-2-[4-(1H-pyrrol-1-yl)phenyl]acetamide]: the IC50 lay within 10 to 50 µM.

As for `O=C(Cc1cccc(CC(F)(F)F)c1)N(Cc1ccncc1)C1C=CS(=O)(=O)C1` (stereo not shown) [I-393, N-(1,1-dioxo-2,3-dihydro-1lambda6-thiophen-3-yl)-N-[(pyridin-4-yl)methyl]-2-[3-(2,2,2-trifluoroethyl)phenyl]acetamide], the IC50 is greater than 50 µM.

With `O=C(Cc1ccc(S(F)(F)(F)(F)F)cc1)N(Cc1ccnc(OC(F)(F)F)c1)C1C=CS(=O)(=O)C1` (stereo not shown) [I-725, N-(1,1-dioxo-2,3-dihydro-1lambda6-thiophen-3-yl)-2-[4-(pentafluoro-lambda6-sulfanyl)phenyl]-N-{[2-(trifluoromethoxy)pyridin-4-yl]methyl}acetamide], the IC50 lay within 0.5 to 5 µM.

As for `O=C(Cn1cc(-c2ccc(F)c(F)c2)cn1)N(Cc1nc([C@H]2C[C@H]2F)cs1)C1C=CS(=O)(=O)C1` (stereo partly drawn) [I-724, 2-[4-(3,4-difluorophenyl)-1H-pyrazol-1-yl]-N-(1,1-dioxo-2,3-dihydro-1lambda6-thiophen-3-yl)-N-({4-[(1R,2R)-2-fluorocyclopropyl]-1,3-thiazol-2-yl}methyl)acetamide], the IC50 was less than 0.5 µM.

Consider `O=C(Cc1ccc(C2CCCCC2)cc1)N(Cc1ccncc1)C1C=CS(=O)(=O)C1` (stereo not shown) [I-164, 2-(4-cyclohexylphenyl)-N-(1,1-dioxo-2,3-dihydro-1lambda6-thiophen-3-yl)-N-[(pyridin-4-yl)methyl]acetamide], for which the IC50 was in the range of 0.5 to 5 µM.

For the compound `O=C(Cc1ccc(S(F)(F)(F)(F)F)cc1)N(Cc1ccc(=O)[nH]n1)C1C=CS(=O)(=O)C1` (stereo not shown) [I-817, N-(1,1-dioxo-2,3-dihydro-1lambda6-thiophen-3-yl)-N-[(6-oxo-1,6-dihydropyridazin-3-yl)methyl]-2-[4-(pentafluoro-lambda6-sulfanyl)phenyl]acetamide], the IC50 lay within 0.5 to 5 µM.

As to `CN(C)C(=O)CC(C(=O)N(Cc1ccncc1)C1C=CS(=O)(=O)C1)c1ccc(-c2ccc(F)cc2)cc1` (stereo not shown) [I-475, N-(1,1-dioxo-2,3-dihydro-1lambda6-thiophen-3-yl)-2-{4′-fluoro-[1,1′-biphenyl]-4-yl}-N′,N′-dimethyl-N-[(pyridin-4-yl)methyl]butanediamide], the IC50 was greater than 50 µM.

Regarding `O=C(Cc1ccc(-n2cccc2)cc1)N(Cc1ccc2[nH]ccc2c1)C1C=CS(=O)(=O)C1` (stereo not shown) [I-498, N-(1,1-dioxo-2,3-dihydro-1lambda6-thiophen-3-yl)-N-[(1H-indol-5-yl)methyl]-2-[4-(1H-pyrrol-1-yl)phenyl]acetamide], the IC50 was greater than 50 µM.

`O=C(Cc1ccc(S(F)(F)(F)(F)F)cc1)N(Cc1nc(C2CC2)cs1)C1C=CS(=O)(=O)C1` (single isomer, unassigned) [I-253]: the IC50 was 10 to 50 µM.

Regarding `COc1cc(CN(C(=O)C(O/C=C/S(C)(=O)=O)c2ccc(-c3ccc(F)c(F)c3)cc2F)[C@@H]2C=CS(=O)(=O)C2)ccn1` (stereo partly drawn) [I-793, N-[(3R)-1,1-dioxo-2,3-dihydro-1lambda6-thiophen-3-yl]-2-{[(1E)-2-methanesulfonylethenyl]oxy}-N-[(2-methoxypyridin-4-yl)methyl]-2-{3,3′,4′-trifluoro-[1,1′-biphenyl]-4-yl}acetamide], the IC50 fell in the range of 0.5 to 5 µM.

With `COc1cc(CN(C(=O)Cn2ncc(-c3ccc(F)c(F)c3)c2C)[C@@H]2C=CS(=O)(=O)C2)ccn1` [I-739, 2-[4-(3,4-difluorophenyl)-5-methyl-1H-pyrazol-1-yl]-N-[(3R)-1,1-dioxo-2,3-dihydro-1lambda6-thiophen-3-yl]-N-[(2-methoxypyridin-4-yl)methyl]acetamide], the IC50 was less than 0.5 µM.

In the case of `O=C(C1CCC2(CCC2)CO1)N(Cc1ccncc1)C1C=CS(=O)(=O)C1` (stereo not shown) [I-654, N-(1,1-dioxo-2,3-dihydro-1lambda6-thiophen-3-yl)-N-[(pyridin-4-yl)methyl]-6-oxaspiro[3.5]nonane-7-carboxamide], the IC50 is greater than 50 µM.

With `CC(C)(O)c1cc(CN(C(=O)Cc2ccc(C(F)(F)C(F)(F)F)cc2)C2C=CS(=O)(=O)C2)ccn1` (single isomer, unassigned) [I-673], the IC50 was less than 0.5 µM.

As for `COc1cc(CN(C(=O)C(c2ccc(-c3ccc(F)c(F)c3)cc2F)n2nccn2)[C@@H]2C=CS(=O)(=O)C2)ccn1` (stereo partly drawn) [I-733, N-[(3R)-1,1-dioxo-2,3-dihydro-1lambda6-thiophen-3-yl]-N-[(2-methoxypyridin-4-yl)methyl]-2-(2H-1,2,3-triazol-2-yl)-2-{3,3′,4′-trifluoro-[1,1′-biphenyl]-4-yl}acetamide], the IC50 was less than 0.5 µM.

For the compound `O=C(Cc1ccc(-n2cccc2)cc1)N(Cc1cccc(Br)c1)C1C=CS(=O)(=O)C1` (stereo not shown) [I-157, N-[(3-bromophenyl)methyl]-N-(1,1-dioxo-2,3-dihydro-1lambda6-thiophen-3-yl)-2-[4-(1H-pyrrol-1-yl)phenyl]acetamide], the IC50 lay in the range of 0.5 to 5 µM.

Consider `COc1cc(CN(C(=O)Cn2cc(-c3ccccc3)c(C)n2)[C@@H]2C=CS(=O)(=O)C2)ccn1` [I-596, N-[(3R)-1,1-dioxo-2,3-dihydro-1lambda6-thiophen-3-yl]-N-[(2-methoxypyridin-4-yl)methyl]-2-(3-methyl-4-phenyl-1H-pyrazol-1-yl)acetamide], for which the IC50 lay in the range of 10 to 50 µM.

As to `COc1cc(CN(C(=O)Cc2ccc(S(F)(F)(F)(F)F)cc2)C2C=CS(=O)(=O)C2)ncn1` (stereo not shown) [I-600, N-(1,1-dioxo-2,3-dihydro-1lambda6-thiophen-3-yl)-N-[(6-methoxypyrimidin-4-yl)methyl]-2-[4-(pentafluoro-lambda6-sulfanyl)phenyl]acetamide], the IC50 lay in the range of 0.5 to 5 µM.

In the case of `O=C(Cc1ccc(-n2cccc2)cc1)N(CC12CCC(CC1)CC2)C1C=CS(=O)(=O)C1` (stereo not shown) [I-545, N-({bicyclo[2.2.2]octan-1-yl}methyl)-N-(1,1-dioxo-2,3-dihydro-1lambda6-thiophen-3-yl)-2-[4-(1H-pyrrol-1-yl)phenyl]acetamide], the IC50 was greater than 50 µM.

In the case of `CC(C)(O)c1cc(CN(C(=O)Cc2ccc(-c3ccc(F)c(F)c3)cc2F)C2C=CS(=O)(=O)C2)ccn1` (single isomer, unassigned) [I-11], the IC50 was less than 0.5 µM.

The values above are taken from patent publication US20260297070A1, “CYCLIC [COMPOUND LEFT OUT] WRN INHIBITORS” (Nimbus Wadjet, Inc., priority 2023, published 2026).
